# Laboratory results published in patent CN106905199A, “一种基于聚集诱导发光原理用于选择性检测半胱氨酸的荧光试剂的合成及应用” (Gannan Normal University, priority 2017, dated 2017).
# Tests used:
# [1] = Response time of TPENNO2 to Cys (fluorescence vs incubation time); details: 25 μM TPENNO2, PBS (50 mM, pH 7.4, 2.5% DMSO), 200 μM Cys, 37℃
# [2] = Selectivity test of TPENNO2: essential amino acids; details: 25 μM TPENNO2 in PBS, 300 μM analyte, 37℃, 30 min, Ex=341 nm
# [3] = Selectivity test of TPENNO2: Hcy; details: 300 μM Hcy, 37℃, 30 min, Ex=341 nm
# [4] = Selectivity test of TPENNO2: GSH; details: 300 μM GSH, 37℃, 30 min, Ex=341 nm
# [5] = Reaction kinetics of TPENNO2 with the thiol of Cys
# [6] = Reaction kinetics of TPENNO2 with the thiol of GSH
# [7] = test system: thiol compounds in HeLa cells [HeLa细胞内巯基化合物]; experiment: Fluorescence imaging of intracellular thiols in HeLa cells; type: cell-based, human
compound,measurement,setting,value
O=[N+]([O-])c1ccc(S(=O)(=O)Nc2ccc(C(=C(c3ccccc3)c3ccccc3)c3ccccc3)cc2)c([N+](=O)[O-])c1 [TPENNO2],incubation time after which fluorescence intensity is essentially saturated,[1],30 min
same,change of fluorescence intensity after reaction with essential amino acids other than Cys,[2],没有明显增强
same,change of fluorescence intensity after reaction with Hcy,[3]; 25 μM TPENNO2 in PBS,没有明显增强
same,interference of Hcy with Cys detection,[3],干扰均较小
same,change of fluorescence intensity after reaction with GSH,[4]; 25 μM TPENNO2 in PBS,没有明显增强
same,interference of GSH with Cys detection,[4],干扰均较小
same,first-order reaction kinetic constant with the thiol of Cys,[5],0.13 min⁻¹
same,first-order reaction kinetic constant with the thiol of GSH,[6],0.0048 min⁻¹
same,fluorescence signal in HeLa cells,"[7]; 4 μM TPENNO2, 20 min, no pretreatment, Ex 405 nm, 450-550 nm collected",绿色荧光信号
same,fluorescence signal in HeLa cells after Cys pretreatment,"[7]; 0.5 mM Cys 24 h, then 4 μM TPENNO2, 20 min",荧光信号增强
same,fluorescence signal in HeLa cells after NEM pretreatment,"[7]; 0.5 mM NEM (N-ethylmaleimide, thiol-consuming) 15 min, then 4 μM TPENNO2, 20 min",荧光信号减弱
